{"source": "patent US20150176022A1", "about": "“HERBICIDE-RESISTANT SUNFLOWER PLANTS, POLYNUCLEOTIDES ENCODING HERBICIDE=RESISTANT ACETO HYDROXY ACID SYNTHASE LARGE SUBUNIT PROTEINS, AND METHODS OF USE” (priority 2013, published 2015)", "system": "sunflower genotypes carrying the A122T mutation event", "assay": "Greenhouse whole-plant imazapir dose response (Example 8), group mean", "assay_type": "in vivo, Helianthus annuus", "details": "14 DAT; for biomass, Dif with control (reduction), A122T / plant height, Dif with Control (height reduction), A122T / root dry weight, Dif with control (reduction), A122T: A122T mean; for biomass accumulation (% of untreated), Mean A122T / plant height (% of untreated), Mean A122T / root dry weight (% of untreated), Mean A122T: mean of six A122T genotypes; for Phytotoxicity Index, Mean A122T: mean of three A122T genotypes", "protocol": "A greenhouse study was conducted to quantify and contrast the imazapir sensitivity of the mutants A122T and A205V in different genetic backgrounds at the whole plant level in sunflower. Seeds of the different sunflower lines that were used in this study were obtained under field conditions.\nSeeds were sown in Petri dishes and, after germination, plantlets were transplanted to pots of 10 cm of diameter in a potting media consisting of equal parts of vermiculite, soil and sand. Plants were grown in a greenhouse under natural light conditions supplemented with 400 W sodium halide lamps to provide a 16 hrs daylength. Day/night temperatures were 25 and 20° C., respectively. At the V2 stage 10 plants of each genotype were randomly assigned to each treatment consisting of […] imazapir doses (0, 40, 80, 160, 240, 320, 400 and 480 g ai/ha), and a zero-time biomass determination. Experiment was arranged as a randomized block design with a full factorial (sunflower line×treatment) arrangement of treatments and 10 replications.\nOn the day of herbicide application ten plants of each genotype were cut at the cotyledonal node and dried at 60° C. for 48 hrs zero-time for dried weight determination. […] Height was determined as the distance between the cotyledonal node and the apex of each plant. For root biomass determination, each plant was taken from the pot and the potting media was washed out from the roots. Above ground biomass data from each line were converted to biomass accumulation after application by subtracting the appropriate average zero-time biomass from each sample. Dry biomass data were converted to percentages of the untreated control plants within each line to allow direct comparisons between groups.", "note": "“And” between values parts separate entries of the source, which are not always exact repeats. Identical values can stand only once.", "data": [{"smiles": "CC(C)C1(C)N=C(c2ncccc2C(=O)O)NC1=O", "note": "(stereo not shown) [imazapir, imazapyr]", "values": [{"measurement": "biomass, Dif with control (reduction), A122T", "setting": "0.5× (40 g ai/ha)", "value": 1.1, "unit": "%"}, {"measurement": "plant height, Dif with Control (height reduction), A122T", "setting": "0.5× (40 g ai/ha)", "value": 0.6, "unit": "%"}, {"measurement": "root dry weight, Dif with control (reduction), A122T", "setting": "0.5× (40 g ai/ha)", "value": 0.1, "unit": "%"}, {"measurement": "biomass, Dif with control (reduction), A122T", "setting": "1× (80 g ai/ha)", "value": 3.2, "unit": "%"}, {"measurement": "plant height, Dif with Control (height reduction), A122T", "setting": "1× (80 g ai/ha)", "value": 1.4, "unit": "%"}, {"measurement": "root dry weight, Dif with control (reduction), A122T", "setting": "1× (80 g ai/ha)", "value": 2.5, "unit": "%"}, {"measurement": "biomass, Dif with control (reduction), A122T", "setting": "2× (160 g ai/ha)", "value": 5.1, "unit": "%"}, {"measurement": "plant height, Dif with Control (height reduction), A122T", "setting": "2× (160 g ai/ha)", "value": 2.7, "unit": "%"}, {"measurement": "root dry weight, Dif with control (reduction), A122T", "setting": "2× (160 g ai/ha)", "value": 5.9, "unit": "%"}, {"measurement": "biomass, Dif with control (reduction), A122T", "setting": "3× (240 g ai/ha)", "value": 7.2, "unit": "%"}, {"measurement": "plant height, Dif with Control (height reduction), A122T", "setting": "3× (240 g ai/ha)", "value": 4.4, "unit": "%"}, {"measurement": "root dry weight, Dif with control (reduction), A122T", "setting": "3× (240 g ai/ha)", "value": 10.6, "unit": "%"}, {"measurement": "biomass, Dif with control (reduction), A122T", "setting": "4× (320 g ai/ha)", "value": 12.2, "unit": "%"}, {"measurement": "plant height, Dif with Control (height reduction), A122T", "setting": "4× (320 g ai/ha)", "value": 6.3, "unit": "%"}, {"measurement": "root dry weight, Dif with control (reduction), A122T", "setting": "4× (320 g ai/ha)", "value": 18.6, "unit": "%"}, {"measurement": "biomass, Dif with control (reduction), A122T", "setting": "5× (400 g ai/ha)", "value": 20.7, "unit": "%"}, {"measurement": "plant height, Dif with Control (height reduction), A122T", "setting": "5× (400 g ai/ha)", "value": 10.2, "unit": "%"}, {"measurement": "root dry weight, Dif with control (reduction), A122T", "setting": "5× (400 g ai/ha)", "value": 21.3, "unit": "%"}, {"measurement": "biomass, Dif with control (reduction), A122T", "setting": "6× (480 g ai/ha)", "value": "25% and 25.4%"}, {"measurement": "plant height, Dif with Control (height reduction), A122T", "setting": "6× (480 g ai/ha)", "value": 15.8, "unit": "%"}, {"measurement": "root dry weight, Dif with control (reduction), A122T", "setting": "6× (480 g ai/ha)", "value": 38.3, "unit": "%"}, {"measurement": "biomass accumulation (% of untreated), Mean A122T", "setting": "0.5× (40 g ai/ha)", "value": 98.9, "unit": "%"}, {"measurement": "plant height (% of untreated), Mean A122T", "setting": "0.5× (40 g ai/ha)", "value": 99.4, "unit": "%"}, {"measurement": "root dry weight (% of untreated), Mean A122T", "setting": "0.5× (40 g ai/ha)", "value": 99.9, "unit": "%"}, {"measurement": "biomass accumulation (% of untreated), Mean A122T", "setting": "1× (80 g ai/ha)", "value": 96.8, "unit": "%"}, {"measurement": "plant height (% of untreated), Mean A122T", "setting": "1× (80 g ai/ha)", "value": 98.6, "unit": "%"}, {"measurement": "root dry weight (% of untreated), Mean A122T", "setting": "1× (80 g ai/ha)", "value": 97.5, "unit": "%"}, {"measurement": "biomass accumulation (% of untreated), Mean A122T", "setting": "2× (160 g ai/ha)", "value": 94.9, "unit": "%"}, {"measurement": "plant height (% of untreated), Mean A122T", "setting": "2× (160 g ai/ha)", "value": 97.3, "unit": "%"}, {"measurement": "root dry weight (% of untreated), Mean A122T", "setting": "2× (160 g ai/ha)", "value": 94.1, "unit": "%"}, {"measurement": "biomass accumulation (% of untreated), Mean A122T", "setting": "3× (240 g ai/ha)", "value": 92.8, "unit": "%"}, {"measurement": "plant height (% of untreated), Mean A122T", "setting": "3× (240 g ai/ha)", "value": 95.6, "unit": "%"}, {"measurement": "root dry weight (% of untreated), Mean A122T", "setting": "3× (240 g ai/ha)", "value": 89.4, "unit": "%"}, {"measurement": "biomass accumulation (% of untreated), Mean A122T", "setting": "4× (320 g ai/ha)", "value": 87.8, "unit": "%"}, {"measurement": "plant height (% of untreated), Mean A122T", "setting": "4× (320 g ai/ha)", "value": 93.7, "unit": "%"}, {"measurement": "root dry weight (% of untreated), Mean A122T", "setting": "4× (320 g ai/ha)", "value": 81.4, "unit": "%"}, {"measurement": "biomass accumulation (% of untreated), Mean A122T", "setting": "5× (400 g ai/ha)", "value": 79.3, "unit": "%"}, {"measurement": "plant height (% of untreated), Mean A122T", "setting": "5× (400 g ai/ha)", "value": 89.8, "unit": "%"}, {"measurement": "root dry weight (% of untreated), Mean A122T", "setting": "5× (400 g ai/ha)", "value": 78.7, "unit": "%"}, {"measurement": "biomass accumulation (% of untreated), Mean A122T", "setting": "6× (480 g ai/ha)", "value": 74.6, "unit": "%"}, {"measurement": "plant height (% of untreated), Mean A122T", "setting": "6× (480 g ai/ha)", "value": 84.2, "unit": "%"}, {"measurement": "root dry weight (% of untreated), Mean A122T", "setting": "6× (480 g ai/ha)", "value": 61.7, "unit": "%"}, {"measurement": "Phytotoxicity Index, Mean A122T", "setting": "0.5× (40 g ai/ha)", "value": 0.3}, {"measurement": "Phytotoxicity Index, Mean A122T", "setting": "1× (80 g ai/ha)", "value": 0.3}, {"measurement": "Phytotoxicity Index, Mean A122T", "setting": "2× (160 g ai/ha)", "value": 0.3}, {"measurement": "Phytotoxicity Index, Mean A122T", "setting": "3× (240 g ai/ha)", "value": 0.3}, {"measurement": "Phytotoxicity Index, Mean A122T", "setting": "4× (320 g ai/ha)", "value": 0.5}, {"measurement": "Phytotoxicity Index, Mean A122T", "setting": "5× (400 g ai/ha)", "value": 0.8}, {"measurement": "Phytotoxicity Index, Mean A122T", "setting": "6× (480 g ai/ha)", "value": 1.2}]}]}
